The source made the active and inactive calls.
How the values were obtained:
Hexokinase HKDC1 = target: T1, Hexokinase HKDC1 (Homo sapiens, UniProt Q2TB90); assay: SAR analysis of small molecule inhibitors of hexokinase domain containing I (HKDC1). [Related pubchem assays (depositor defined):AID493160, AID493190]; format: functional
T1 sequence (Q2TB90 whole entry): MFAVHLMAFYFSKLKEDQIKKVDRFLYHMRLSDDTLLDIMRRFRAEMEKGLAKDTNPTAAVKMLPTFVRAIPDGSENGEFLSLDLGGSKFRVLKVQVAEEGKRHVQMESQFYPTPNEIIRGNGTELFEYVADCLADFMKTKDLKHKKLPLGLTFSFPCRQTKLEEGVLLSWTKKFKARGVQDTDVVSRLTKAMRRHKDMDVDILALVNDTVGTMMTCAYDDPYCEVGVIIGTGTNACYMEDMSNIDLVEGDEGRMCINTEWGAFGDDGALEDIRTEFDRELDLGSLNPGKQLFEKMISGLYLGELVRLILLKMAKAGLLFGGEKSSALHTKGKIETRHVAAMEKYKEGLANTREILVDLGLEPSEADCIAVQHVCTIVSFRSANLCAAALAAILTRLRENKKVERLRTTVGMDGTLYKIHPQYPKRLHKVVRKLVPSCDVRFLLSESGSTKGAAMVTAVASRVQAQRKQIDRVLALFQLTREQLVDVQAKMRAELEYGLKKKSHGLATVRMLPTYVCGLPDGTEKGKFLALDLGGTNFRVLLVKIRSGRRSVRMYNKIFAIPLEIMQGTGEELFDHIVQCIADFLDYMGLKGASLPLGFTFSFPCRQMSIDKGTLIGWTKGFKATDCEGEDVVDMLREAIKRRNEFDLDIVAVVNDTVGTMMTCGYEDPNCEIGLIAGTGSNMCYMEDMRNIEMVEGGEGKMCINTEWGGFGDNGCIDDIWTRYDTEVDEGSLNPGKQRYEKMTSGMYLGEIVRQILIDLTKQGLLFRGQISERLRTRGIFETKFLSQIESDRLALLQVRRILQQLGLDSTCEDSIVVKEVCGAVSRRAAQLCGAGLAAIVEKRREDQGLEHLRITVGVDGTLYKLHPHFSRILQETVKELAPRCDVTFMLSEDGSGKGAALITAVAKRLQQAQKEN

Hexokinase-1 = target: T2, Hexokinase-1 (Homo sapiens, UniProt P19367); assay: SAR analysis of small molecule inhibitors of hexokinase domain containing I (HKDC1) in the hexokinase 1 selectivity assay. [Related pubchem assays (depositor defined):AID493160, AID493190]; format: functional
T2 sequence (P19367 whole entry): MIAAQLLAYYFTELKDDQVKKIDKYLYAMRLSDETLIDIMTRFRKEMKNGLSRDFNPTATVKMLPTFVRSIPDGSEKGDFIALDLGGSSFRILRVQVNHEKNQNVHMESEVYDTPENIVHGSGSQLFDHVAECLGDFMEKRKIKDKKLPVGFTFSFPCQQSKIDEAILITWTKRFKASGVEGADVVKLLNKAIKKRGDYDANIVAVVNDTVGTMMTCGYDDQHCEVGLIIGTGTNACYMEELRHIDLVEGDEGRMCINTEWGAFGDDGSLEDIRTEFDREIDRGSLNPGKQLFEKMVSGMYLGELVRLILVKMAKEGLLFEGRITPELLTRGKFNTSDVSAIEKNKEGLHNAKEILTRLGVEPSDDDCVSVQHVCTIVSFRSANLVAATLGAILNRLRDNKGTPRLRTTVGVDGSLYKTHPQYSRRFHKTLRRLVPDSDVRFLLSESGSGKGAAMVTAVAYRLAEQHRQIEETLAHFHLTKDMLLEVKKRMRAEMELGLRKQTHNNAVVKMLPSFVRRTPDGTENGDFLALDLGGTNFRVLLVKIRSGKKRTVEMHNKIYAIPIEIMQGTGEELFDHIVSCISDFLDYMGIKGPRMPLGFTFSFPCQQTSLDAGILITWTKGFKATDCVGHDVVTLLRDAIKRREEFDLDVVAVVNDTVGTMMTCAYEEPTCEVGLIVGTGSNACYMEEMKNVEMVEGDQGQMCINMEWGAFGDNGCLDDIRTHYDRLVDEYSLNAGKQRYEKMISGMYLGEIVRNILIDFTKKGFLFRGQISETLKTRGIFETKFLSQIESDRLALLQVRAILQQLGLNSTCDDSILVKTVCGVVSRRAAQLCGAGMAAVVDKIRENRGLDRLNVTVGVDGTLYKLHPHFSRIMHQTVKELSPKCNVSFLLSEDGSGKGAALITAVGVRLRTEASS

[1] = target: Serine/threonine-protein phosphatase (Candida dubliniensis (strain CD36 / CBS 7987 / NCPF 3949 / NRRLY-17841) (Yeast), UniProt B9W6M3); assay: calcineurin pathway inhibitors in yeast reporter, dose response, S. cerevisiae, CDRE-lacZ, luminescence, secondary (AID 2388); format: functional, cell-based;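 also: yeast reporter cells carrying a calcineurin-responsive lacZ construct stimulated with calcium chloride; luminescent beta-galactosidase reporter signal in whole cells rather than isolated phosphatase activity; potency for inhibition where a drop in reporter signal means calcineurin blockade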
[2] = Luminescence-based cell-based high throughput dose response assay to identify activators of the DAF-12 from the parasite S. stercoralis (ssDAF-12).; format: functional
[3] = C. albicans growth with fluconazole, confirmation, fluorescence, retest (AID 2467); format: functional, cell-based
[4] = target: T3, Oxysterols receptor LXR-beta (Homo sapiens, UniProt P55055); format: functional, cell-based;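 also: Cell-based luminescence dose-response assay of agonist activity at LXR, run as a confirmatory counterscreen to a daf-12 agonist screen; HEK293 cells with Gal4-LXR fusion and GAL4-driven luciferase reporter; agonist potency from rising luciferase signal of a Gal4-LXR reporter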
T3 sequence (P55055 whole entry): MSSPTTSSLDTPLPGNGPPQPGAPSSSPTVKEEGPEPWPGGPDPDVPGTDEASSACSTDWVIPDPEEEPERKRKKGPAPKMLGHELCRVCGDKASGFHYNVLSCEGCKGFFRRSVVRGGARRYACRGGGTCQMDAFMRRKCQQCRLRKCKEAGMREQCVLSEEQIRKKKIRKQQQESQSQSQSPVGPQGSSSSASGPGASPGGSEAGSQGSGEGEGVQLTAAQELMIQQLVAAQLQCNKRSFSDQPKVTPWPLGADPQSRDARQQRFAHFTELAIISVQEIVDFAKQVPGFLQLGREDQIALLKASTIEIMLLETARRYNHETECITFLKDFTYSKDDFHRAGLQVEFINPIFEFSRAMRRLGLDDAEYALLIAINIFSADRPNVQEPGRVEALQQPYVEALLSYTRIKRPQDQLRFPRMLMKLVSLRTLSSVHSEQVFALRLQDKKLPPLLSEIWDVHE

[5] = NIH-3T3 fibroblast cytotoxicity, dose response, cytotoxicity control, cell-based, fluorescence, Alamar Blue, secondary assay (AID 2327); format: functional;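 also: NIH-3T3 mouse fibroblasts cultured with fluconazole at 8 µg/mL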
[6] = target: ATP-dependent molecular chaperone HSP82 (Candida albicans (strain WO-1) (Yeast), UniProt C4YTQ8); assay: loss of DOC-induced GRE-beta-galactosidase reporter signal, dose response, Hsp90 inhibitor project, S. cerevisiae, luminescence (AID 2400); format: functional, cell-based;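 also: beta-galactosidase luminescence from glucocorticoid response element reporter as proxy for Hsp90 function; inhibitor potency where signal loss means Hsp90 inhibition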
HEK293 = assay: cells; format: functional, cell-based; settings: Homo sapiens
[7] = target: Nuclear receptor subfamily 0 group B member 1 (Homo sapiens, UniProt P51843); assay: Luminescence-based cell-based high throughput dose response assay for inhibitors of the orphan nuclear receptor subfamily 0, group B, member 1 (DAX1; NR0B1). [Related pubchem assays (depositor defined):AID504766, AID504790]; format: functional
Sequence of Nuclear receptor subfamily 0 group B member 1 (P51843 whole entry): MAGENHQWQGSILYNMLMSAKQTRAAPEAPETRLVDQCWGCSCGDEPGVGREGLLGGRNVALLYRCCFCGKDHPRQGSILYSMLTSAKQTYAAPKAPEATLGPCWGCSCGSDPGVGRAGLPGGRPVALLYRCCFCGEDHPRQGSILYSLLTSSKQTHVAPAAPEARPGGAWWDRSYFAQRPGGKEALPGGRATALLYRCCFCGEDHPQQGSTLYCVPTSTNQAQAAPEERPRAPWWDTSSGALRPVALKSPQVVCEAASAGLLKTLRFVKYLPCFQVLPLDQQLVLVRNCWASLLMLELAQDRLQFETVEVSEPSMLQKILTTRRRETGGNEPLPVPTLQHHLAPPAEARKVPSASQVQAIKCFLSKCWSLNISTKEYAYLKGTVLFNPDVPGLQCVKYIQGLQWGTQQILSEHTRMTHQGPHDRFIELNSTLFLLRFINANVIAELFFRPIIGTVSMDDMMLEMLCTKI

Sequence of Serine/threonine-protein phosphatase (B9W6M3 whole entry): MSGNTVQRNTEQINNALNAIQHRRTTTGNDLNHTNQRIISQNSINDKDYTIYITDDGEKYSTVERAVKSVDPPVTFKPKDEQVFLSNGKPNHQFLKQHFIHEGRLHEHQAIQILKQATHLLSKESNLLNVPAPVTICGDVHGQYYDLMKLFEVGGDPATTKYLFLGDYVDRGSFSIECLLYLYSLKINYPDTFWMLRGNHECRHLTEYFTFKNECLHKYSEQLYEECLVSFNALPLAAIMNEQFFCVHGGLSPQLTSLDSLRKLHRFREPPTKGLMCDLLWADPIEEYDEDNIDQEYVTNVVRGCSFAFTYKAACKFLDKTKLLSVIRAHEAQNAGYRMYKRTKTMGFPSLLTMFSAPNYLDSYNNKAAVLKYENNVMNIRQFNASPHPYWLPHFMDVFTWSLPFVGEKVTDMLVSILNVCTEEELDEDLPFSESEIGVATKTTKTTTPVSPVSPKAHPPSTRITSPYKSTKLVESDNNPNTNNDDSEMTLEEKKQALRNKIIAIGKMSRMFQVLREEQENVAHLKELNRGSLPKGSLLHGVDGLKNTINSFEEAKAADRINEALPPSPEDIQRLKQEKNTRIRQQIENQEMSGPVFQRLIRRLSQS
Sequence of ATP-dependent molecular chaperone HSP82 (C4YTQ8 whole entry): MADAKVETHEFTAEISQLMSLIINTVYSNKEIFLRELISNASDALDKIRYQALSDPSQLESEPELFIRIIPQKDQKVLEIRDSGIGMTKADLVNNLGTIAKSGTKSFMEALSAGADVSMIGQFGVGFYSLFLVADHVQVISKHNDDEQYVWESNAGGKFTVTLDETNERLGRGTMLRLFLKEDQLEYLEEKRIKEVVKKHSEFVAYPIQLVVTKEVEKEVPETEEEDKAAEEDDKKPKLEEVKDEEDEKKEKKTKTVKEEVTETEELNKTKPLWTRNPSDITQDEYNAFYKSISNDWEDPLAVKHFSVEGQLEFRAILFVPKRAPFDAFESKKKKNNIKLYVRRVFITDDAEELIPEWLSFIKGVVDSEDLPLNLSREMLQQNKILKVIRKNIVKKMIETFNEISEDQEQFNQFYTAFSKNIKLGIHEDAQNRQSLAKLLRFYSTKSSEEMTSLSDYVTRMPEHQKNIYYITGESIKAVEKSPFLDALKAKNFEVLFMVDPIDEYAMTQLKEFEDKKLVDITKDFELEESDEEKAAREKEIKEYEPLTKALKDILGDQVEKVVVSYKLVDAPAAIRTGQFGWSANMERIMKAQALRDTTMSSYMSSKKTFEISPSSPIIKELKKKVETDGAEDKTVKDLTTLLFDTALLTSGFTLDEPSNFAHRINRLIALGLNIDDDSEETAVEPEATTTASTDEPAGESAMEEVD

**Q.** Which results are given for `Cc1ccccc1/C=C\c1nc2ccccc2c(=O)n1Cc1ccccc1`?
**A.** IC50 (Hexokinase HKDC1): > 80 µM (inactive); IC50 (Hexokinase-1): > 80 µM (inactive)

**Q.** For `CN1/C(=C/C(=O)c2cccs2)Sc2ccccc21`, which EC50 [1] is on record?
**A.** > 180 µM (inactive)

**Q.** What about the IC50 [2] of the same compound?
**A.** > 67.5 µM (inactive)

**Q.** What about the EC50 [3] of the same compound?
**A.** 2.02 µM (active)

**Q.** And the EC50 (cells)?
**A.** > 67.5 µM (inactive)

**Q.** What about the EC50 [4] of the same compound?
**A.** > 67.5 µM (inactive)

**Q.** What about the EC50 [5] of the same compound?
**A.** 14.7 µM (active)

**Q.** What about the EC50 [6] of the same compound?
**A.** > 150 µM (inactive)

**Q.** What does the source list for `O=C(c1ccc(Br)cc1)c1coc2ccc(O)cc12`?
**A.** IC50 (HEK293): > 67.5 µM (inactive); IC50 [7]: > 67.5 µM (inactive)
